Laboratory results from patent US10865191B2, “Heterocyclic compounds useful as modulators of TNF alpha” (BRISTOL-MYERS SQUIBB COMPANY, priority 2015, dated 2020).
pIC50: −log10 of the molar value.

Each compound was assayed against TNFα (Homo sapiens, UniProt P01375) (assay: TNF induced HEK-Blue assay (NF-kB-driven secreted alkaline phosphatase reporter)). Conditions: TNF induced HEK-Blue assay IC50 value, TNFα 0.5 ng/mL, HEK-Blue-CD40L cells, 18 h.
Assay type: cell-based
Experimental: TNF or CD40L-Induced HEK-Blue Assay
Test compounds serially diluted in DMSO were plated in an assay plate (LABCYTE, Cat. # LP-0200) at final concentrations ranging from 0.004 μM to 25 μM. TNFα (final concentration 0.5 ng/mL) or CD40L (final concentration 30 ng/mL) in assay buffer [DMEM, 4.5 g/l glucose (Gibco, Cat. 21063-029), 10% FBS (Sigma, F4135), 1% Penicillin-Streptomycin (Gibco, Cat. 15140-122), 1% Anti-Anti (Gibco, Cat. 15240-112) and 2 mM L-glutamine (Gibco, Cat. 25030-081)] was then added to the assay plate. After a 30 minute pre-incubation at 37° C. and 5% CO2, HEK-Blue™-CD40L cells (INVIVOGEN, Cat. Code hkb-cd40) containing a NF-kB-driven secreted alkaline phosphatase reporter gene were seeded into the assay plate at a density of 20,000 cells per well. This plate was then incubated for 18 h at 37° C. and 5% CO2. Secreted alkaline phosphatase expression was measured using QUANTI-Blue™ (INVIVOGEN, Cat. Code rep-qb1) according to manufacturer's specifications and the assay plate was read on a PerkinElmer Envision at 620 nm.
Inhibition data for the test compound over a range of concentrations was plotted as percentage inhibition of the test compound (100%=maximum inhibition). IC50 values were determined after correcting for background [(sample read-mean of low control)/(mean of high control-mean of low control)] where by the low control is DMSO without stimulation and high control is DMSO with stimulation. The IC50 is defined as the concentration of test compound which produces 50% inhibition and was quantified using the 4 parameter logistic equation to fit the data.

Chain of TNFα (P01375 77-233 limits assumed): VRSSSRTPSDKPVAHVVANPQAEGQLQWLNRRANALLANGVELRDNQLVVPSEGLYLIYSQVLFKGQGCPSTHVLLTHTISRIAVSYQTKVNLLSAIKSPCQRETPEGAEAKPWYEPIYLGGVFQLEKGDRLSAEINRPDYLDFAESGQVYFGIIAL

pIC50 | Structure (SMILES)
> 6.00 | CC(Nc1c(Cl)cnc2ccc(-c3cnc(C(C)(C)O)nc3)cc12)c1ccccc1C(F)(F)F (racemic) [Example 151, 2-(5-(3-chloro-4-((1-(2-(trifluoromethyl)phenyl)ethyl)amino)quinolin-6-yl)pyrimidin-2-yl)propan-2-ol]
> 6.00 | CC(Nc1c(Cl)cnc2ccc(-c3cnc(C(C)(C)O)nc3)cc12)c1ccccc1F (racemic) [Example 152, 2-(5-(3-chloro-4-((1-(2-fluorophenyl)ethyl)amino)quinolin-6-yl)pyrimidin-2-yl)propan-2-ol]
5.00 to 6.00 | CC(Nc1c(Cl)cnc2ccc(-c3cnc(C(C)(C)O)nc3)cc12)c1cccc(F)c1 (racemic) [Example 155, 2-(5-(3-chloro-4-((1-(3-fluorophenyl)ethyl)amino)quinolin-6-yl)pyrimidin-2-yl)propan-2-ol]
4.60 to 5.00 | CC(Nc1c(Cl)cnc2ccc(-c3cnc(C(C)(C)O)nc3)cc12)c1ccc(F)cc1 (racemic) [Example 157, 2-(5-(3-chloro-4-((1-(4-fluorophenyl)ethyl)amino)quinolin-6-yl)pyrimidin-2-yl)propan-2-ol]

Same assay, conditions: TNFα 0.5 ng/mL, HEK-Blue-CD40L cells, 18 h; read-out: TNF induced HEK-Blue assay IC50 value

pIC50 | Structure (SMILES)
4.60 to 5.00 | CC(Nc1c(Cl)cnc2ccc(-c3cnc(C(C)(C)O)nc3)cc12)C1(c2ccc(Cl)cc2)CCCC1 (racemic) [Example 142, 2-(5-(3-chloro-4-((1-(1-(4-chlorophenyl)cyclopentyl)ethyl)amino)quinolin-6-yl)pyrimidin-2-yl)propan-2-ol]
4.60 to 5.00 | CC(CC(O)(c1ccccc1)c1ccccc1)Nc1c(Cl)cnc2ccc(-c3cnc(C(C)(C)O)nc3)cc12 (racemic) [Example 143, 3-((3-chloro-6-(2-(2-hydroxypropan-2-yl)pyrimidin-5-yl)quinolin-4-yl)amino)-1,1-diphenylbutan-1-ol]
5.00 to 6.00 | CC(Cc1cccc2[nH]ccc12)Nc1c(Cl)cnc2ccc(-c3cnc(C(C)(C)O)nc3)cc12 (racemic) [Example 144, 2-(5-(4-((1-(1H-indol-4-yl)propan-2-yl)amino)-3-chloroquinolin-6-yl)pyrimidin-2-yl)propan-2-ol]
5.00 to 6.00 | CC(Nc1c(Cl)cnc2ccc(-c3cnc(C(C)(C)O)nc3)cc12)c1cccc(C(F)(F)F)c1 (racemic) [Example 147, 2-(5-(3-chloro-4-((1-(3-(trifluoromethyl)phenyl)ethyl)amino)quinolin-6-yl)pyrimidin-2-yl)propan-2-ol]
5.00 to 6.00 | Cc1ccc(C)c(C(C)Nc2c(Cl)cnc3ccc(-c4cnc(C(C)(C)O)nc4)cc23)c1 (racemic) [Example 149, 2-(5-(3-chloro-4-((1-(2,5-dimethylphenyl)ethyl)amino)quinolin-6-yl)pyrimidin-2-yl)propan-2-ol]
4.60 to 5.00 | CC(Nc1c(Cl)cnc2ccc(-c3cnc(C(C)(C)O)nc3)cc12)c1ccc(C(F)(F)F)cc1 (racemic) [Example 150, 2-(5-(3-chloro-4-((1-(4-(trifluoromethyl)phenyl)ethyl)amino)quinolin-6-yl)pyrimidin-2-yl)propan-2-ol]
> 6.00 | CC(Nc1c(Cl)cnc2ccc(-c3cnc(C(C)(C)O)nc3)cc12)c1ccccc1Cl (racemic) [Example 153, 2-(5-(3-chloro-4-((1-(2-chlorophenyl)ethyl)amino)quinolin-6-yl)pyrimidin-2-yl)propan-2-ol]
5.00 to 6.00 | CC(Nc1c(F)cnc2ccc(-c3cnc(C(C)(C)O)nc3)cc12)c1ccccc1F (racemic) [Example 156, 2-(5-(3-fluoro-4-((1-(2-fluorophenyl)ethyl)amino)quinolin-6-yl)pyrimidin-2-yl) propan-2-ol]
4.60 to 5.00 | Cc1nc2ccc(-c3cnc(C(C)(C)O)nc3)cc2c(NC(C)c2ccccc2F)c1F (racemic) [Example 159, 2-(5-(3-fluoro-4-((1-(2-fluorophenyl)ethyl)amino)-2-methylquinolin-6-yl)pyrimidin-2-yl)propan-2-ol]
> 6.00 | CC(Nc1c(Cl)cnc2ccc(-c3cnc(C(C)(C)O)nc3)cc12)c1cc(F)ccc1F (racemic) [Example 160, 2-(5-(3-chloro-4-((1-(2,5-difluorophenyl)ethyl)amino)quinolin-6-yl)pyrimidin-2-yl)propan-2-ol]
> 6.00 | CC(Nc1c(Cl)cnc2ccc(-c3cnc(C(C)(C)O)nc3)cc12)c1ccncc1F (racemic) [Example 162, 2-(5-(3-chloro-4-((1-(3-fluoropyridin-4-yl)ethyl)amino)quinolin-6-yl)pyrimidin-2-yl)propan-2-ol]
5.00 to 6.00 | CC(Nc1c(Cl)cnc2ccc(-c3cnc(C(C)(C)O)nc3)cc12)c1ccc(F)cc1F (racemic) [Example 163, 2-(5-(3-chloro-4-((1-(2,4-difluorophenyl)ethyl)amino)quinolin-6-yl)pyrimidin-2-yl)propan-2-ol]
5.00 to 6.00 | CC(C)(O)c1ncc(-c2ccc3ncc(Cl)c(NC(c4ccccc4F)C(F)(F)F)c3c2)cn1 (racemic) [Example 164, 2-(5-(3-chloro-4-((2,2,2-trifluoro-1-(2-fluorophenyl)ethyl)amino)quinolin-6-yl)pyrimidin-2-yl)propan-2-ol]
> 6.00 | CC(C)(O)c1ncc(-c2ccc3ncc(Cl)c(NC(CC(F)(F)F)c4ccccc4)c3c2)cn1 (racemic) [Example 165, 2-(5-(3-chloro-4-((3,3,3-trifluoro-1-phenylpropyl)amino)quinolin-6-yl)pyrimidin-2-yl)propan-2-ol]
4.60 to 5.00 | CC(Nc1c(Cl)cnc2ccc(-c3ccc(C(C)(C)O)cc3)cc12)c1cccnc1 (racemic) [Example 166, 2-(4-(3-chloro-4-((1-(pyridin-3-yl)ethyl)amino)quinolin-6-yl)phenyl)propan-2-ol]
> 6.00 | CC(C)(O)c1ncc(-c2ccc3ncc(Cl)c(NC(CCO)c4ccccc4F)c3c2)cn1 (racemic) [Example 167, 3-((3-chloro-6-(2-(2-hydroxypropan-2-yl)pyrimidin-5-yl)quinolin-4-yl)amino)-3-(2-fluorophenyl)propan-1-ol]
> 6.00 | CC(C)(O)c1ncc(-c2ccc3ncc(Cl)c(NC(CC(F)F)c4ccccc4F)c3c2)cn1 (racemic) [Example 168, 2-(5-(3-chloro-4-((3,3-difluoro-1-(2-fluorophenyl)propyl)amino)quinolin-6-yl)pyrimidin-2-yl)propan-2-ol]
> 6.00 | CC(C)(O)c1ncc(-c2ccc3ncc(Cl)c(NC(CC(F)(F)F)c4ccccc4F)c3c2)cn1 (racemic) [Example 169, 2-(5-(3-chloro-4-((3,3,3-trifluoro-1-(2-fluorophenyl)propyl)amino)quinolin-6-yl)pyrimidin-2-yl)propan-2-ol]
> 6.00 | CC(Nc1c(Cl)cnc2ccc(-c3ccc(C(C)(C)O)cc3)cc12)c1ncccc1F (racemic) [Example 170, 2-(4-(3-chloro-4-((1-(3-fluoropyridin-2-yl)ethyl)amino)quinolin-6-yl)phenyl) propan-2-ol]
> 6.00 | CC(Nc1c(Cl)cnc2ccc(-c3cnc(C(C)(C)O)nc3)cc12)c1ncccc1F (racemic) [Example 171, 2-(5-(3-chloro-4-((1-(3-fluoropyridin-2-yl)ethyl)amino)quinolin-6-yl)pyrimidin-2-yl)propan-2-ol]
4.60 to 5.00 | CC(Nc1c(Cl)cnc2ccc(-c3ccc(C(C)(C)O)cc3)cc12)c1cnsc1 (racemic) [Example 172, 2-(4-(3-chloro-4-((1-(isothiazol-4-yl)ethyl)amino)quinolin-6-yl)phenyl)propan-2-ol]
